# Biological target: T1, α4β1 integrin (Homo sapiens, UniProt P05556+P13612)
# T1 construct: a cell line Jurkat, which is known to express α4β1 integrin; endogenous in cells; host or cells: Jurkat (human T cell line)
# Assay: VCAM-1/α4β1 integrin binding inhibitory activity evaluation test (Jurkat cells binding to VCAM-1/Fc)
# Format: cell-based
# Details: recombinant human VCAM-1/Fc
# Description: (1) VCAM-1/α4β1 Integrin Binding Inhibitory Activity Evaluation Test
# Each test substance was measured in terms of an ability to inhibit the VCAM-1 binding of a human T cell line, namely, a cell line Jurkat, which is known to express α4β1 integrin.
# A solution of recombinant human VCAM-1/Fc (R&D Systems, Inc.) (1 μg/mL) diluted with a buffer A (carbonate buffer, pH 9.6) was placed in an amount of 50 μL/well in a 96-well microtiter plate, followed by incubation at 4° C. overnight. After the plate was washed with PBS once, 150 μL/well of Block Ace (Snow Brand Milk Products Co., Ltd.) was added, followed by incubation at room temperature for 2 hours. After removal, the plate was washed with PBS once.
# Then, 100 μL of the Jurkat cells (2×10^6 cells/mL) and 100 μL of the test substance at each of various concentrations diluted with a binding buffer (DMEM containing 40 mM HEPES, 0.2% BSA, and 4 mM MnCl2) were added to the plate coated with the VCAM-1/Fc (5×10^5 cells/well), followed by incubation at 30° C. for 15 to 60 minutes. After the cells were bound to the wells, the plate was washed with PBS to remove unbound cells. A buffer C (PBS containing 1.5% Triton X-100) was added in an amount 50 μL/well to the plate to lyse the bound Jurkat cells. After 30 μL of a substrate buffer (Promega, CytoTox 96 Non-Radioactive Cytotoxicity Assay) was added to 30 μL of the cell lysate, a reaction was allowed to proceed at room temperature in the dark for 30 minutes. After 30 μL of a stop solution (Promega, CytoTox 96 Non-Radioactive Cytotoxicity Assay) was added to each, and then an absorbance at 490 nm was measured using a plate reader. The absorbance obtained here represents a detection result of an activity of lactate dehydrogenase (LDH) eluted in the supernatant of each well, that is, the absorbance is proportional to the number of Jurkat cells bound to the VCAM-1 and thus remaining on the plate. The test was performed in duplicate. Provided that the absorbance of a well containing no test substance was 100%, a cell binding rate with the test substance at each of the various concentrations was figured out, and a concentration IC50 which brought about 50% binding inhibition was calculated.
# T1 sequence (P13612 34-1032): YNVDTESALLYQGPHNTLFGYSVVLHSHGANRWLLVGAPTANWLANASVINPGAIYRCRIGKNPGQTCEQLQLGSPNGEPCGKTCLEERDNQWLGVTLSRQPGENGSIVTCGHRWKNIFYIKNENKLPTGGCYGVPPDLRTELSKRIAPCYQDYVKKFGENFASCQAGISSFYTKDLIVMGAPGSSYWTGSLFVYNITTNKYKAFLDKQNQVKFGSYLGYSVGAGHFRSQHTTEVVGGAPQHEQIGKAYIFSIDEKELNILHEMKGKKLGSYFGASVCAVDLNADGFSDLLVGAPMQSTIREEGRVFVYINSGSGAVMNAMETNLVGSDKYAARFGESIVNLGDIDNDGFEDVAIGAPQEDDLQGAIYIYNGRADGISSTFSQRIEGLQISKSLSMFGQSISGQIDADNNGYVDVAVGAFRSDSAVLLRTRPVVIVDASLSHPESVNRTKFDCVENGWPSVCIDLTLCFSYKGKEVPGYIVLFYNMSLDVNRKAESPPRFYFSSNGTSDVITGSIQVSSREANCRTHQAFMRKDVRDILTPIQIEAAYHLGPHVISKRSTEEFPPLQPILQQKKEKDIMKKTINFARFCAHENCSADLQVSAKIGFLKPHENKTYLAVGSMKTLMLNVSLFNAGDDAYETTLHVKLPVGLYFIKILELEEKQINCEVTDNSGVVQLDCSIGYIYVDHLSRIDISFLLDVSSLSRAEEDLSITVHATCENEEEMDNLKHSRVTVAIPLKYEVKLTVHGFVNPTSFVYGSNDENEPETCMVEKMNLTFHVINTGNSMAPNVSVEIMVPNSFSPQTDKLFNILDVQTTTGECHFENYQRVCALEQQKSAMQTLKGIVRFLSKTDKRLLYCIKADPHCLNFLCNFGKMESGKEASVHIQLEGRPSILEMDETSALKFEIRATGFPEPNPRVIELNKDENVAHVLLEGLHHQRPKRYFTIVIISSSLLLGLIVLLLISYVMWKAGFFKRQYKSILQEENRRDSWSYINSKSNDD
# T1 sequence (P05556 21-798): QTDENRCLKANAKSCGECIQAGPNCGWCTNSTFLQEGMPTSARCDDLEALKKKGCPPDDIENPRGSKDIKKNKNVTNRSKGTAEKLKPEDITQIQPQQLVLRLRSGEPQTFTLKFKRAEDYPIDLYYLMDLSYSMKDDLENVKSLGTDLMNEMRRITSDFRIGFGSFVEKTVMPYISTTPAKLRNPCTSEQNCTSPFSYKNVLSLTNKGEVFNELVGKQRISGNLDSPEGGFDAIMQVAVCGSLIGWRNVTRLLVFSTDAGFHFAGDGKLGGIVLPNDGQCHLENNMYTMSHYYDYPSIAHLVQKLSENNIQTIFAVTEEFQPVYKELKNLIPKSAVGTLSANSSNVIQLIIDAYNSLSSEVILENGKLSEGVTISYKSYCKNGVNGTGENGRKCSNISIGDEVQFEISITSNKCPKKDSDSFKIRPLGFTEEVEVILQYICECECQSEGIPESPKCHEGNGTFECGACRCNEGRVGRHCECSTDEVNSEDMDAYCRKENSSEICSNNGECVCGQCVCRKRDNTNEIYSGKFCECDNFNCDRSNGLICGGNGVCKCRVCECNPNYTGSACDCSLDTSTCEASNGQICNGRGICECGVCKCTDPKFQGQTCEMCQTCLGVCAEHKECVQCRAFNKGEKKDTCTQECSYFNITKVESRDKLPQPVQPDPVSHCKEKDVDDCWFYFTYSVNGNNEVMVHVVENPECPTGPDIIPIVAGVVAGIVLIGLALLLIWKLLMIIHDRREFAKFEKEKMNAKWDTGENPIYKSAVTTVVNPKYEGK
row,SMILES,IC50
1,Cn1c(=O)n(-c2ccc(C[C@H](NC(=O)c3cc(F)c(NS(=O)(=O)c4ccc(NC(=O)C(C)(C)CO)cc4)cc3F)C(=O)O)cc2)c(=O)c2ccncc21 [Compound A18],0.72 µM
2,"Cn1c(=O)n(-c2ccc(C[C@H](NC(=O)c3cc(F)c(NS(=O)(=O)c4ccc(NC(=O)C5CCNCC5)cc4)cc3F)C(=O)O)cc2)c(=O)c2ccncc21 [Compound A6, (2S)-2-[[2,5-difluoro-4-[[4-(piperidine-4-carbonylamino)phenyl]sulfonylamino]benzoyl]amino]-3-[4-(1-methyl-2,4-dioxo-pyrido[3,4-d]pyrimidin-3-yl)phenyl]propanoic acid]",0.89 µM
3,Cc1cc(=O)n(-c2ccc(C[C@H](NC(=O)c3cc(F)c(NS(=O)(=O)c4ccc(NC(=O)C(C)(C)C)cc4)cc3F)C(=O)O)nc2)c(=O)n1C [Compound A72],9.3 µM
4,Cc1c(C)n(C(C)C)c(=O)n(-c2ccc(C[C@H](NC(=O)c3cc(F)c(NS(=O)(=O)c4ccc(NC(=O)C(C)(C)C)cc4)cc3F)C(=O)O)cc2)c1=O [Compound A48],11 µM
5,Cn1c(=O)n(-c2ccc(C[C@H](NC(=O)c3cc(F)c(NS(=O)(=O)c4ccc(NC(=O)C5CCOCC5)cc4)cc3F)C(=O)O)cc2)c(=O)c2ccncc21 [Compound A14],0.55 µM
6,Cn1c2c(c(=O)n(-c3ccc(C[C@H](NC(=O)c4cc(F)c(NS(=O)(=O)c5ccc(NC(=O)C(C)(C)C)cc5)cc4F)C(=O)O)cc3)c1=O)COCC2 [Compound A33],1 µM
7,CN1CCc2c(n(C)c(=O)n(-c3ccc(C[C@H](NC(=O)c4cc(F)c(NS(=O)(=O)c5ccc(NC(=O)C(C)(C)C)cc5)cc4F)C(=O)O)cc3)c2=O)C1 [Compound A41],0.48 µM
8,Cc1cn(C)c(=O)n(-c2ccc(C[C@H](NC(=O)c3cc(F)c(NS(=O)(=O)c4ccc(NC(=O)C(C)(C)C)s4)cc3F)C(=O)O)cn2)c1=O [Compound A73],21 µM
9,Cc1c(C)n(C)c(=O)n(-c2ccc(C[C@H](NC(=O)c3cc(F)c(NS(=O)(=O)c4ccc(-n5ccc(C6CCOCC6)cc5=O)cc4)cc3F)C(=O)O)cc2)c1=O [Compound A34],3.6 µM
10,Cc1c(C)n(C)c(=O)n(-c2ccc(C[C@H](NC(=O)c3cc(F)c(NS(=O)(=O)c4cccc(NC(=O)C(C)(C)C)c4)cc3F)C(=O)O)cn2)c1=O [Compound A50],7.1 µM
11,COc1cc2c(=O)n(-c3ccc(C[C@H](NC(=O)c4cc(F)c(NS(=O)(=O)c5ccc(NC(=O)C(C)(C)C)cc5)cc4F)C(=O)O)cc3)c(=O)n(C)c2cn1 [Compound A36],1.8 µM
12,Cn1ccc(=O)n(-c2ccc(C[C@H](NC(=O)c3cc(F)c(NS(=O)(=O)c4ccc(NC(=O)C5CCCC5)cc4)cc3F)C(=O)O)cn2)c1=O [Compound A64],> 31.2 µM
13,Cn1c2c(c(=O)n(-c3ccc(C[C@H](NC(=O)c4cc(F)c(NS(=O)(=O)c5ccc(NC(=O)C(C)(C)C)cc5)cc4F)C(=O)O)cn3)c1=O)CCOC2 [Compound A40],2.3 µM
14,Cn1c(=O)n(-c2ccc(C[C@H](NC(=O)c3cc(F)c(NS(=O)(=O)c4ccc(NC(=O)C5(C(F)(F)F)CC5)cc4)cc3F)C(=O)O)cc2)c(=O)c2ccncc21 [Compound A24],1.4 µM
15,CCC(CC)C(=O)Nc1ccc(S(=O)(=O)Nc2cc(F)c(C(=O)N[C@@H](Cc3ccc(-n4c(=O)c5ccncc5n(C)c4=O)cc3)C(=O)O)cc2F)cc1 [Compound A3],2.4 µM
16,Cc1cn(C)c(=O)n(-c2ccc(C[C@H](NC(=O)c3cc(F)c(NS(=O)(=O)c4ccc(NC(=O)C(C)C)cc4)cc3F)C(=O)O)cn2)c1=O [Compound A71],15 µM
17,Cc1cn(C)c(=O)n(-c2ccc(C[C@H](NC(=O)c3cc(F)c(NS(=O)(=O)c4ccc(NC(=O)C(C)(C)C)cc4)cc3F)C(=O)O)nc2)c1=O [Compound A69],13 µM

row,SMILES,IC50
1,Cn1c2c(c(=O)n(-c3ccc(C[C@H](NC(=O)c4cc(F)c(NS(=O)(=O)c5ccc(NC(=O)C(C)(C)C)cc5)cc4F)C(=O)O)cc3)c1=O)CCOC2 [Compound A27],0.91 µM
2,Cc1c(C)n(C)c(=O)n(-c2ccc(C[C@H](NC(=O)c3cc(F)c(NS(=O)(=O)c4ccc(NC(=O)C(C)(C)C)cn4)cc3F)C(=O)O)cn2)c1=O [Compound A32],4.4 µM
3,Cc1cc(=O)n(-c2ccc(C[C@H](NC(=O)c3cc(F)c(NS(=O)(=O)c4ccc(NC(=O)C(C)(C)C)cc4)cc3F)C(=O)O)cc2)c(=O)n1C [Compound A46],1.8 µM
4,Cn1ccc(=O)n(-c2ccc(C[C@H](NC(=O)c3cc(F)c(NS(=O)(=O)c4ccc(NC(=O)C(C)(C)CO)cc4)cc3F)C(=O)O)cn2)c1=O [Compound A62],> 31.2 µM
5,Cn1c(C(F)(F)F)cc(=O)n(-c2ccc(C[C@H](NC(=O)c3cc(F)c(NS(=O)(=O)c4ccc(NC(=O)C(C)(C)C)cc4)cc3F)C(=O)O)cn2)c1=O [Compound A66],19 µM
6,Cc1c(C)n(C)c(=O)n(-c2ccc(C[C@H](NC(=O)c3cc(F)c(NS(=O)(=O)c4ccc(NC(=O)C5(c6ccccc6)CC5)cc4)cc3F)C(=O)O)cc2)c1=O [Compound A30],2.7 µM
7,Cc1c(C)n(C)c(=O)n(-c2ccc(C[C@H](NC(=O)c3cc(F)c(NS(=O)(=O)c4cccc(NC(=O)C(C)(C)C)c4)cc3F)C(=O)O)cc2)c1=O [Compound A49],1.8 µM
8,Cn1cc(C(F)(F)F)c(=O)n(-c2ccc(C[C@H](NC(=O)c3cc(F)c(NS(=O)(=O)c4ccc(NC(=O)C(C)(C)C)cc4)cc3F)C(=O)O)cn2)c1=O [Compound A67],19 µM
9,Cn1c2c(c(=O)n(-c3ccc(C[C@H](NC(=O)c4cc(F)c(NS(=O)(=O)c5ccc(NC(=O)C(C)(C)C)cc5)cc4F)C(=O)O)nc3)c1=O)CCCC2 [Compound A47],4.1 µM
10,Cc1cn(C)c(=O)n(-c2ccc(C[C@H](NC(=O)c3cc(F)c(NS(=O)(=O)c4ccc(NC(=O)C(C)(C)C)cc4)cc3F)C(=O)O)cc2)c1=O [Compound A37],4.1 µM
11,COC1(C(=O)Nc2ccc(S(=O)(=O)Nc3cc(F)c(C(=O)N[C@@H](Cc4ccc(-n5c(=O)c(C)c(C)n(C)c5=O)cc4)C(=O)O)cc3F)cc2)CC1 [Compound A17],1.3 µM
12,Cc1c(C)n(C)c(=O)n(-c2ccc(C[C@H](NC(=O)c3cc(F)c(NS(=O)(=O)c4ccc(NC(=O)C5(O)CC5)cc4)cc3F)C(=O)O)cc2)c1=O [Compound A22],0.83 µM
13,Cn1c(=O)n(-c2ccc(C[C@H](NC(=O)c3cc(F)c(NS(=O)(=O)c4ccc(NC(=O)C(C)(C)C)c(F)c4)cc3F)C(=O)O)cc2)c(=O)c2ccncc21 [Compound A12],1.2 µM
14,Cc1cn(C)c(=O)n(-c2ccc(C[C@H](NC(=O)c3cc(F)c(NS(=O)(=O)c4ccc(NC(=O)C5(C#N)CC5)cc4)cc3F)C(=O)O)cn2)c1=O [Compound A60],12 µM
15,"CN1CCC(=O)N(c2ccc(C[C@H](NC(=O)c3cc(F)c(NS(=O)(=O)c4ccc(NC(=O)C(C)(C)C)cc4)cc3F)C(=O)O)cn2)C1=O [Compound A75, (2S)-2-[2,5-difluoro-4-[(4-pivalamidophenyl)sulfonamide]benzamido]-3-[6-(3-methyl-2,6-dioxotetrahydropyrimidin-1(2H)-yl)pyridin-3-yl]propanoic acid]",32 µM
16,Cc1cn(C)c(=O)n(-c2ccc(C[C@H](NC(=O)c3cc(F)c(NS(=O)(=O)c4ccc(NC(=O)C5(C(F)(F)F)CC5)cc4)cc3F)C(=O)O)cn2)c1=O [Compound A56],19 µM
17,CCC(CC)C(=O)Nc1ccc(S(=O)(=O)Nc2cc(F)c(C(=O)N[C@@H](Cc3ccc(-n4c(=O)ccn(C)c4=O)nc3)C(=O)O)cc2F)cc1 [Compound A61],> 31.2 µM
